Patent US20230233569A1 (Revolution Medicines, Inc., priority 2020, published 2023)
Where two headings read alike, the source gives them in different places.

Key:
Assay in all cases: Ras-Raf disruption / FRET / MOA assay (BRAF RBD)
Assay type in all cases: biochemical
KRAS G12D = KRAS G12D (Homo sapiens, UniProt P01116+P62937, G12D); details: with Cyclophilin A
In short: (§1)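 Compound-induced Ras–Cyclophilin A ternary complex disrupting BRAF RBD binding, read as IC50 from reduced TR-FRET ratio relative to DMSO. Final: Ras-GMPPNP 12.5 nM, BRAF RBD 50 nM, Cyclophilin A 25 μM, top compound 30 μM (3-fold, 10 points); 3 h at 25 °C, then 1.5 h with detection antibodies.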

KRAS G12S = KRAS G12S (Homo sapiens, UniProt P01116+P62937, G12S); details: with Cyclophilin A
In short: as §1

KRAS G12V = KRAS G12V (Homo sapiens, UniProt P01116+P62937, G12V); details: with Cyclophilin A
In short: as §1

KRAS G13C = KRAS G13C (Homo sapiens, UniProt P01116+P62937, G13C); details: with Cyclophilin A
In short: as §1

KRAS G13D = KRAS G13D (Homo sapiens, UniProt P01116+P62937, G13D); details: with Cyclophilin A
In short: as §1

KRAS Q61H = KRAS Q61H (Homo sapiens, UniProt P01116+P62937, Q61H)
In short: as §1

KRAS WT = KRAS WT (Homo sapiens, UniProt P01116+P62937); details: with Cyclophilin A
In short: as §1

NRAS G12C = NRAS G12C (Homo sapiens, UniProt P01111+P62937, G12C)
In short: as §1

NRAS Q61K = NRAS Q61K (Homo sapiens, UniProt P01111+P62937, Q61K)
In short: as §1

NRAS Q61R = NRAS Q61R (Homo sapiens, UniProt P01111+P62937, Q61R)
In short: as §1

NRAS WT = NRAS WT (Homo sapiens, UniProt P01111+P62937)
In short: as §1

KRAS G12C = KRAS G12C (Homo sapiens, UniProt P01116+P62937, G12C); details: with Cyclophilin A
In short: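 TR-FRET read-out after 1.5 h with anti-His Eu-W1024 (10 nM) and anti-GST APC (50 nM), following 3 h at 25 °C of compound (top 30 μM, 3-fold, 10 points) with 25 μM Cyclophilin A, 12.5 nM GMPPNP-loaded K-Ras G12C and 50 nM BRAF RBD; IC50 reported.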

[1] = Ras-Raf disruption, read-out: KRAS G12D FRET data IC50
[2] = Ras-Raf disruption, read-out: KRAS G12S FRET data IC50
[3] = Ras-Raf disruption, read-out: KRAS G12V FRET data IC50
[4] = Ras-Raf disruption, read-out: KRAS G13C FRET data IC50
[5] = Ras-Raf disruption, read-out: KRAS G13D FRET data IC50
[6] = KRAS Q61H, read-out: KRAS Q61H FRET data IC50
[7] = Ras-Raf disruption, read-out: KRAS WT FRET data IC50
[8] = NRAS G12C, read-out: NRAS G12C FRET data IC50
[9] = NRAS Q61K, read-out: NRAS Q61K FRET data IC50
[10] = NRAS Q61R, read-out: NRAS Q61R FRET data IC50
[11] = NRAS WT, read-out: NRAS WT FRET data IC50
[12] = Ras-Raf disruption, read-out: KRAS G12C FRET data IC50
[13] = KRAS G12D FRET data IC50, Ras-Raf disruption
[14] = KRAS G12S FRET data IC50, Ras-Raf disruption
[15] = KRAS G12V FRET data IC50, Ras-Raf disruption
[16] = KRAS G13C FRET data IC50, Ras-Raf disruption
[17] = KRAS G13D FRET data IC50, Ras-Raf disruption
[18] = KRAS WT FRET data IC50, Ras-Raf disruption
[19] = NRAS G12C FRET data IC50, NRAS G12C
[20] = KRAS G12C FRET data IC50, Ras-Raf disruption

Chain of KRAS Q61H (P01116 1-169 isoform P01116-2 Q61H limits assumed): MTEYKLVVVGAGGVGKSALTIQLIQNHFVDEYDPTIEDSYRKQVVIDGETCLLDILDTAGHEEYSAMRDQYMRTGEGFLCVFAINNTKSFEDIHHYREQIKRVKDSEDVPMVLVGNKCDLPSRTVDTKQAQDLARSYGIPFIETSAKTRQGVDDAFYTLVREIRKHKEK
Chain of KRAS Q61H (P62937 whole entry): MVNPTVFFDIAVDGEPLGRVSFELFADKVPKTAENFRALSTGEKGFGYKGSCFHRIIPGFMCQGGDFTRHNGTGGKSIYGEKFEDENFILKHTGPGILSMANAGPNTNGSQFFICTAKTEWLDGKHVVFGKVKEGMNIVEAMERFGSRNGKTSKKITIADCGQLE
Chain of KRAS G12V (P01116 1-169 isoform P01116-2 G12V limits assumed): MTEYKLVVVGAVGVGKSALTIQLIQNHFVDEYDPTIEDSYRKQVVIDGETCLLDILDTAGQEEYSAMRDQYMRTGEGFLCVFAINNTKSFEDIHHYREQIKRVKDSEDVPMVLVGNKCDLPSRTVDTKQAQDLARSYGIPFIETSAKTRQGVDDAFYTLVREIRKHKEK
Chain of KRAS G12V (P62937 whole entry): as the sequence (P62937 whole entry) above
Chain of KRAS G12D (P01116 1-169 isoform P01116-2 G12D limits assumed): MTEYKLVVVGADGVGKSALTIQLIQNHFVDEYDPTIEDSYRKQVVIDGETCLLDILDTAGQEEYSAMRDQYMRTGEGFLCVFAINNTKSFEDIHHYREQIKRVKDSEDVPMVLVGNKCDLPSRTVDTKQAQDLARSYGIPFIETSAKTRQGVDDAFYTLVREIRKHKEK
Chain of KRAS G12D (P62937 whole entry): as the sequence (P62937 whole entry) above
Chain of KRAS G13C (P01116 1-169 isoform P01116-2 G13C limits assumed): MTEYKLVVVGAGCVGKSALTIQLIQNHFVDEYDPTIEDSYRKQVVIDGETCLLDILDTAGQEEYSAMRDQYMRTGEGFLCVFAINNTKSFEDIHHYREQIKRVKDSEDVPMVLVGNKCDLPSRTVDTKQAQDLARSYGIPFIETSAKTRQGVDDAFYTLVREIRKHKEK
Chain of KRAS G13C (P62937 whole entry): as the sequence (P62937 whole entry) above
Chain of NRAS Q61R (P01111 whole entry Q61R): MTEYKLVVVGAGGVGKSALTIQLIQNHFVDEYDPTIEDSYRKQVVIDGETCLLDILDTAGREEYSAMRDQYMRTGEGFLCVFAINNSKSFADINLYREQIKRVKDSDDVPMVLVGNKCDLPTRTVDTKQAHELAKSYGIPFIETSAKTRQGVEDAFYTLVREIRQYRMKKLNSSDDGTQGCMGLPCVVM
Chain of NRAS Q61R (P62937 whole entry): as the sequence (P62937 whole entry) above
Chain of KRAS WT (P01116 1-169 isoform P01116-2 limits assumed): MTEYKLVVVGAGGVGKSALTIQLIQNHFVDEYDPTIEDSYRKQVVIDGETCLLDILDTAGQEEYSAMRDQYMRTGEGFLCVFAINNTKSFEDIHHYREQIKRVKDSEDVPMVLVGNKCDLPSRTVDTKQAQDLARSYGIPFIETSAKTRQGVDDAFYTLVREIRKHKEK
Chain of KRAS WT (P62937 whole entry): as the sequence (P62937 whole entry) above
Chain of NRAS WT (P01111 whole entry): as the sequence (P01111 whole entry Q61R) above, with R61Q counted along it
Chain of NRAS WT (P62937 whole entry): as the sequence (P62937 whole entry) above
Chain of KRAS G12S (P01116 1-169 isoform P01116-2 G12S limits assumed): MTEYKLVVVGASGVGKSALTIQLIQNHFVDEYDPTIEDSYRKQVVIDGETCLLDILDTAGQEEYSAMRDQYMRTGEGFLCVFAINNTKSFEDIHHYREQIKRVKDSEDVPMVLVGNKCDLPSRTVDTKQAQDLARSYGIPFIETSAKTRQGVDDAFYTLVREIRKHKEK
Chain of KRAS G12S (P62937 whole entry): as the sequence (P62937 whole entry) above
Chain of KRAS G12C (P01116 1-169 isoform P01116-2 G12C limits assumed): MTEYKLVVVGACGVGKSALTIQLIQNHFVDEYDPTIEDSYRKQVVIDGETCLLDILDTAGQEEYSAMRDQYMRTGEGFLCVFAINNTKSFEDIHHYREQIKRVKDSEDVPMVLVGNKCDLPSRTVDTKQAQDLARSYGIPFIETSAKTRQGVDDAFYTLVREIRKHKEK
Chain of KRAS G12C (P62937 whole entry): as the sequence (P62937 whole entry) above
Chain of NRAS Q61K (P01111 whole entry Q61K): as the sequence (P01111 whole entry Q61R) above, with R61K counted along it
Chain of NRAS Q61K (P62937 whole entry): as the sequence (P62937 whole entry) above
Chain of NRAS G12C (P01111 whole entry G12C): as the sequence (P01111 whole entry Q61R) above, with G12C, R61Q counted along it
Chain of NRAS G12C (P62937 whole entry): as the sequence (P62937 whole entry) above
Chain of KRAS G13D (P01116 1-169 isoform P01116-2 G13D limits assumed): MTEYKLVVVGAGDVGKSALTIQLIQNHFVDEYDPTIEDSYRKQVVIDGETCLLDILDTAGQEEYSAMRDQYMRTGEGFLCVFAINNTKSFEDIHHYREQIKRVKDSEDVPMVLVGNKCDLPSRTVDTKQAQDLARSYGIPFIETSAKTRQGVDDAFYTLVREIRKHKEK
Chain of KRAS G13D (P62937 whole entry): as the sequence (P62937 whole entry) above

Row | Compound | IC50 (KRAS G12D; [1]) [nM] | IC50 (KRAS G12S; [2]) [nM] | IC50 (KRAS G12V; [3]) [nM] | IC50 (KRAS G13C; [4]) [nM] | IC50 (KRAS G13D; [5]) [nM] | IC50 (KRAS Q61H; [6]) [nM] | IC50 (KRAS WT; [7]) [nM] | IC50 (NRAS G12C; [8]) [nM] | IC50 (NRAS Q61K; [9]) [nM] | IC50 (NRAS Q61R; [10]) [nM] | IC50 (NRAS WT; [11]) [nM] | IC50 (KRAS G12C; [12]) [nM] | further results
1 | CCn1c(-c2cccnc2[C@H](C)OC)c2c3cc(ccc31)-c1cc(O)cc(c1)C[C@H](NC(=O)[C@H](C(C)C)N(C)C(=O)CN(C)C(=O)[C@H]1C[C@@H]3N[C@@H]3C1)C(=O)N1CCC[C@H](N1)C(=O)OCC(C)(C)C2 (atropisomer, axis not shown) [Example 285] | 10 to 100 | 10 to 100 | 10 to 100 | < 10 | 10 to 100 | 10 to 100 | 10 to 100 | 10 to 100 | 100 to 1000 | 100 to 1000 | 10 to 100 | 10 to 100 | 
2 | CCn1c(-c2cccnc2[C@H](C)OC)c2c3cc(ccc31)-c1cc(O)cc(c1)C[C@H](NC(=O)[C@H](C(C)C)N(C)C(=O)[C@H]1CCN(C(=O)C3CO3)C1)C(=O)N1CCC[C@H](N1)C(=O)OCC(C)(C)C2 (stereo partly drawn) [Example 330] | 10 to 100 | 10 to 100 | 10 to 100 | < 10 | 10 to 100 | 10 to 100 | 10 to 100 | < 10 | 100 to 1000 | 100 to 1000 | 10 to 100 | < 10 | 
3 | CCn1c(-c2cccnc2[C@H](C)OC)c2c3cc(ccc31)-c1cc(O)cc(c1)C[C@H](NC(=O)[C@H](C(C)C)N(C)C(=O)N1CC[C@H](N(C)C(=O)[C@H]3CN3)C1)C(=O)N1CCC[C@H](N1)C(=O)OCC(C)(C)C2 (atropisomer, axis not shown) [Example 254] | 100 to 1000 | 100 to 1000 | 100 to 1000 | 10 to 100 | 100 to 1000 | 10 to 100 | 100 to 1000 | 10 to 100 | 100 to 1000 | 100 to 1000 | 100 to 1000 | 10 to 100 | 
4 | CCn1c(-c2cccnc2[C@H](C)OC)c2c3cc(ccc31)-c1csc(n1)C[C@H](NC(=O)[C@H](C(C)C)N(C)C(=O)N1CC(CN(C)C(=O)[C@H]3CN3)C1)C(=O)N1CCC[C@H](N1)C(=O)OCC(C)(C)C2 (atropisomer, axis not shown) [Example 224] | 100 to 1000 | 100 to 1000 | 100 to 1000 | 100 to 1000 | 100 to 1000 | 10 to 100 | 100 to 1000 | 10 to 100 | 10 to 100 | 10 to 100 | 10 to 100 | 10 to 100 | 
5 | CCn1c(-c2cccnc2[C@H](C)OC)c2c3cc(ccc31)-c1cc(O)cc(c1)C[C@H](NC(=O)[C@H](C1CCCC1)N(C)C(=O)CN(C)C(=O)[C@H]1N[C@H]1C1(C#N)CC1)C(=O)N1CCC[C@H](N1)C(=O)OCC(C)(C)C2 [Example 316] |  |  |  |  |  |  |  |  |  |  |  |  | IC50 (KRAS G12D; [13]): 10 to 100 nM; IC50 (KRAS G12S; [14]): 10 to 100 nM; IC50 (KRAS G12V; [15]): 10 to 100 nM; IC50 (KRAS G13C; [16]): 10 to 100 nM; IC50 (KRAS G13D; [17]): 10 to 100 nM; IC50 (KRAS Q61H): 10 to 100 nM; IC50 (KRAS WT; [18]): 10 to 100 nM; IC50 (NRAS G12C; [19]): 10 to 100 nM; IC50 (NRAS Q61K): 100 to 1000 nM; IC50 (NRAS Q61R): 100 to 1000 nM; IC50 (NRAS WT): 10 to 100 nM; IC50 (KRAS G12C; [20]): 10 to 100 nM
6 | CCn1c(-c2cccnc2[C@H](C)OC)c2c3cc(ccc31)-c1cc(O)cc(c1)C[C@H](NC(=O)[C@H](C(C)C)N(C)C(=O)[C@H]1C[C@H]3CC[C@@H](C1)N3C(=O)[C@H]1CN1)C(=O)N1CCC[C@H](N1)C(=O)OCC(C)(C)C2 (atropisomer, axis not shown) [Example 245] | 100 to 1000 | 100 to 1000 | 100 to 1000 | 10 to 100 | 100 to 1000 | 10 to 100 | 10 to 100 | 10 to 100 | 100 to 1000 | 100 to 1000 | 10 to 100 | 10 to 100 | 
7 | CCn1c(-c2cccnc2[C@H](C)OC)c2c3cc(ccc31)-c1cc(O)cc(c1)C[C@H](NC(=O)[C@H](C1CCCC1)N(C)C(=O)CN(C)C(=O)[C@@H]1N[C@@H]1C1(C#N)CC1)C(=O)N1CCC[C@H](N1)C(=O)OCC(C)(C)C2 (single isomer, unassigned) [Example 308] |  |  |  |  |  |  |  |  |  |  |  |  | IC50 (KRAS G12D; [13]): 100 to 1000 nM; IC50 (KRAS G12S; [14]): 10 to 100 nM; IC50 (KRAS G12V; [15]): 100 to 1000 nM; IC50 (KRAS G13C; [16]): 10 to 100 nM; IC50 (KRAS G13D; [17]): 100 to 1000 nM; IC50 (KRAS Q61H): 10 to 100 nM; IC50 (KRAS WT; [18]): 10 to 100 nM; IC50 (NRAS G12C; [19]): 10 to 100 nM; IC50 (NRAS Q61K): 100 to 1000 nM; IC50 (NRAS Q61R): 100 to 1000 nM; IC50 (NRAS WT): 10 to 100 nM; IC50 (KRAS G12C; [20]): 10 to 100 nM
8 | CCn1c(-c2cccnc2[C@H](C)OC)c2c3cc(ccc31)-c1cc(O)cc(c1)C[C@H](NC(=O)[C@@H](COC1CCN(C(=O)[C@H]3CN3)CC1)C(C)C)C(=O)N1CCC[C@H](N1)C(=O)OCC(C)(C)C2 (atropisomer, axis not shown) [Example 211] | 1000 to 10000 | 1000 to 10000 | 1000 to 10000 | 100 to 1000 | 1000 to 10000 | 100 to 1000 | 100 to 1000 | 10 to 100 | 1000 to 10000 | 1000 to 10000 | 100 to 1000 | 10 to 100 | 
9 | CCn1c(-c2cccnc2[C@H](C)OC)c2c3cc(ccc31)-c1csc(n1)C[C@H](NC(=O)[C@H](C(C)C)N(C)C(=O)N1CC[C@H](N(C)C(=O)[C@H]3CN3)C1)C(=O)N1CCC[C@H](N1)C(=O)OCC(C)(C)C2 (atropisomer, axis not shown) [Example 228] | 1000 to 10000 | 100 to 1000 | 100 to 1000 | 100 to 1000 | 100 to 1000 | 10 to 100 | 100 to 1000 | 10 to 100 | 10 to 100 | 100 to 1000 | 100 to 1000 | 100 to 1000 | 
10 | CCn1c(-c2cccnc2[C@H](C)OC)c2c3cc(ccc31)-c1csc(n1)C[C@H](NC(=O)[C@H](C(C)C)N(C)C(=O)N1CC(CN(C)C(=O)[C@@H]3CN3)C1)C(=O)N1CCC[C@H](N1)C(=O)OCC(C)(C)C2 (atropisomer, axis not shown) [Example 225] | 100 to 1000 | 100 to 1000 | 100 to 1000 | 100 to 1000 | 100 to 1000 | 10 to 100 | 100 to 1000 | 10 to 100 | 10 to 100 | 100 to 1000 | 10 to 100 | 10 to 100 | 
11 | CCn1c(-c2cccnc2[C@H](C)OC)c2c3cc(ccc31)-c1csc(n1)C[C@H](NC(=O)[C@H](C(C)C)N(C)C(=O)N1CCN(C(=O)[C@H]3CN3)[C@@H](C)C1)C(=O)N1CCC[C@H](N1)C(=O)OCC(C)(C)C2 [Example 297] | 100 to 1000 | 100 to 1000 | 100 to 1000 | 10 to 100 | 100 to 1000 | 10 to 100 | 10 to 100 | 10 to 100 | 10 to 100 | 10 to 100 | 10 to 100 | 10 to 100 | 
12 | CCn1c(-c2cccnc2[C@H](C)OC)c2c3cc(ccc31)-c1csc(n1)C[C@H](NC(=O)[C@H](C(C)C)N(C)C(=O)N1CC[C@H](N(C)C(=O)[C@@H]3CN3)C1)C(=O)N1CCC[C@H](N1)C(=O)OCC(C)(C)C2 (atropisomer, axis not shown) [Example 229] | 1000 to 10000 | 100 to 1000 | 100 to 1000 | 100 to 1000 | 100 to 1000 | 10 to 100 | 100 to 1000 | 100 to 1000 | 10 to 100 | 100 to 1000 | 100 to 1000 | 100 to 1000 | 
